Experimental data as given in patent US5677285A, “Derivatives of neuraminic acid” (Fidia S.P.A., priority 1992, dated 1997).
“Also recorded” adds a separate entry of the source.

Experiments:
cerebellar granule cells [1] = test: Protective effect on exogenous glutamate induced neurotoxicity, pretreatment, MTT test; format: cell-based, Sprague-Dawley rats; details: glutamate 100 μM, 2 hours pretreatment
Protocol: Primary cell cultures of cerebellar granule Cells were prepared from 6 day old Sprague-Dawley rats. Neurons were grown in 35 mm plates for 11-13 days and maintained in a humid environment (95% air and 5% CO2). Cultures (3×10^6 cells/plate) are mainly formed by granule cells (95%) with a small amount (5%) of glial cells (Gallo V. et al.: Selective release of glutamate from cerebellar granule cells differentiating in culture. Proc. Natl. Acad. Sci. USA 79, 7919-23, 1982). Glial proliferation was prevented by arabinofuranoside cytosine.
Derivative ND37 was solubilized at a concentration of 1×10^-2 M in dimethylsulfoxide (1% DMSO) and then diluted at various concentrations in Locke's solution (154 mM NaCl/1/5.6 mM KCl/3.6 mM NaHCO3 /2.3 mM CaCl2 /1 mM MgCl2 /5.6 mM glucose/5 mM HEPES, pH 7.4). The following concentrations were tested: 5×10^-6 M, 1×10^-5 M, and 2×10^-5 M.
The cell culture medium was aspirated from the plates (and correctly maintained). Plates were washed (3×2 ml) with Locke's solution, and solutions (1.5 ml) containing the compound to be tested (concentrations from 5×10^-6 M to 2×10^-5 M) were added and incubated for 2 hours in an incubator at 37° C. (5% CO2).
Treated cells were washed (3×2 ml) with Locke's solution+10% fetal calf serum, then washed (3×2 ml) with Locke's solution without Mg^++. 100 μM glutamate (1.5 ml) in Locke's solution (-Mg^++) or culture medium (controls) were added. Incubation with glutamate was performed for 15 minutes at room temperature (27° C.). Glutamate was removed, the plates were washed with Locke's solution (2×2 ml), and then incubated in presence of the starting medium (correctly maintained) for 24 hours at 37° C. in an incubator (5% C2 O). At the end of the incubation, cellular viability was assayed via quantification by the MTT colorimetric test (Mosmann T.: Rapid colorimetric assay for cellular growth and survival: application to proliferation and cytotoxicity assays. J. Immunol. Meth. 65, 55: 63, 1983 and modified according to Skaper S. D. et al.: Death of cultured hippocampal pyramidal neurons induced by pathological activation of N-methyl-D-aspartate receptors is reduced by monosialogangliosides. J. Pharm. Exp. Ter. 259,1 452-457, 1991). Data are expressed as % survival. The significance was calculated according to the Dunnett test.

[2] = system: C1300 mouse neuroblastoma cells, Neuro-2a clone; test: Neuritogenic activity (cells with neurites, optical microscopy); format: cell-based
Protocol: C1300 mouse neuroblastoma cells, Neuro-2a clone, (American Cell Type Culture Collection, Bethesda, Md.) were grown at a density of 10,000 cells/well in a culture medium containing Dulbecco's modified Eagle medium (DMEM, Flow), 10% fetal calf serum (FCS, batch IP 02, Seromed), penicillin (100 units per ml, Irvine), and L-glutamine (2 mM, Sigma). Cells were incubated at 37° C. for 24 hours, and medium was removed and substituted with 350 μl of fresh medium plus compounds to be tested.
Tested Compounds and Their Solubilization
Compounds ND35 and ND37 were solubilized at a concentration of 1×10^-2 M in dimethylsulfoxide (1% DMSO). For the different compounds, progressive dilutions in culture medium were performed (concentrations from 1×10^-5 to 1×10^-4 M).
Neuritogenic activity (cell number with neurites, optical microscopy)
Culture plates were incubated with compounds to be tested and analyzed using a phase contrast microscope (250×). Nine fields with prefixed coordinates were chosen and photographed. Then the total number of cells and those with neurites (length at least double the cell diameter) were counted in blind in each photograph. The percentage of cells with neurites was determined after counting of at least 100 cells (Facci L. et al.: Promotion of neuritogenesis in mouse neuroblastoma cells by exogenous ganglioside GM1. J. Neurochem. Raven Press, New York, 299-305,1984).

[3] = system: cerebellar granule cells and cortical neurons; test: Whole cell registration of glutamate-activated inward currents; format: cell-based, rats; details: glutamate 50 μM given contemporaneously with ND37 30 μM; absence of Mg++
Protocol: (§1) Primary cell cultures of cerebellar granule cells were prepared from 8 day old rats (Zivic Miller, Pittsburgh, Pa, USA).
(§2) Neurons were grown on 35 mm plates for 7-8 days and maintained in a humid environment (95% air and 5% CO2). Cultures (2.5×10^6 cells/plate) were mainly formed by granule cells (95%), with a small amount (5%) of glial cells (Gallo V. et al.: Selective release of glutamate from cerebellar granule cells differentiating in culture. Proc. Natl. Acad. Sci. USA 79, 7919-23, 1982). Glial proliferation was prevented by arabinofuranoside cytosine.
Primary cell cultures of cortical neurons were prepared from one day old neonatal […] (Zivic Miller, Pittsburgh, Pa., USA) (Bertolino and Vicini: Mol. Pharmacol. 34, 98-103, 1988).
Cultures were grown on 35 mm plates, to which was added 10 μg/ml of poly-L-lysine, at a density of 5×10^5 cortical neurons/plate. Cultures were prepared on basal Eagle medium (Gibco) containing 10% fetal calf serum (Gibco), 25 mM KCl, 2 mM glutamine, and 100 μg/ml gentamycine. […]
Derivative ND37 was solubilized at a concentration of 1×10^-2 M in dimethylsulfoxide (1% DMSO), and then diluted at various concentrations in Locke's solution (-Mg^++) (154 mM NaCl/5.6 mM KCl/3.6 mM NaHCO3 /2.3 mM CaCl2 /5.6 mM glucose/5 mM HEPES, pH 7.4). ND37 was analyzed at concentrations of 20 and 30 μM. […]

[4] = system: glutamate-activated cationic channels (cerebellar granule neurons); test: Single channel current registration of glutamate-activated cationic channels; format: cell-based, rats
Protocol: as §1, §2
Derivative ND37 was solubilized at a concentration of 1×10^-2 M in dimethylsulfoxide (1% DMSO), and then diluted at various concentrations in Locke's solution (-Mg^++) (154 mM NaCl/5.6 mM KCl/3.6 mM NaHCO3 /2.3 mM CaCl2 /5.6 mM glucose/5 mM HEPES, pH 7.4). ND37 was analyzed at concentrations of 20 and 30 μM.
Experiments were performed at room temperature utilizing the following medium 145 mM NaCl, 1 mM CaCl2, 5 mM glucose, and 5 mM HEPES/NaOH at pH 7.4, and patch pipettes, close to the preparation, containing 145 mM CsCl2, 1 mM CaCl2, 11 mM ethyleneglycol (β-aminoethyl ether) bis N,N'-tetraacetic acid, 10 mM HEPES/Cs(OH)2 at pH 7.2. Plates were continually perfused at a flow rate of 1 ml/min.
b) The activation by glutamate of single channels was externally recorded on membrane portions prepared from cerebellar granule cells pretreated with ND37 for 30 minutes at 37° C. Micropipettes, filled (1 μM) with glutamate, were positioned close to the membrane portions and were also utilized in order to drip the neurotransmitter. Single channel currents were registered according to the method described by Bertolini and Vicini ("Voltage-dependent block by strychnine of N-methyl-D-aspartic acid-activated cationic channels in rat cortical neurons in culture", Mol. Pharmacol. 34, 98-103, 1988).

cerebellar granule cells [5] = test: Protective effect on exogenous glutamate-induced neurotoxicity during cotreatment, FDA/PI test; format: cell-based, rats; details: Rattus norvegicus, 24 h, glutamate 50 μM cotreatment, read-out: % surviving cells N = 4 (average + s.e.) FDA/PI test
Protocol: Primary cerebellar granule cells were prepared from 8 day old rats (Zivic Miller, Pittsburgh, Pa, USA). […] Glial proliferation was prevented by arabinofuranoside cytosine.
The following concentrations were tested: 5×10^-6 M, 1×10^-5 M, and 2×10^5 M.
The cell culture medium was aspirated from the plates (and correctly maintained). Plates were washed (3×2 ml) with Locke's solution without Mg^++, and solutions (1.5 ml) containing the compound to be tested (concentrations from 5×10^6 M to 2×10^5 M) were added and incubated for 2 hours in an incubator at 37° C. (5% CO2).
Treated cells were washed (3×2 ml) with Locke's solution+10% fetal calf serum, then washed (3×2 ml) with Locke's solution without Mg^++. 1.5 ml of Locke's solution (-Mg^++) or 50 μM of glutamate±the test compound (concentrations between 1 and 4×10^-5 M) in 1.5 ml of Locke's solution (-M^++) were added. The incubation was conducted for 15 minutes (37° C.). Glutamate and the compound were removed. The plates were washed with Locke's solution (2×2 ml), and then incubated in the presence of the starting medium (correctly maintained) for 24 hours at 37° C. in an incubator (5% CO2). […] The stained cells where immediately analyzed using a standard fluorescence microscope for epiillumination (Vanox Olympus, 450 nm excitation, 520 nm emission). FDA, a non polar ester, crosses cell membranes and is hydrolyzed by intracellular esterases with the consequent production of a yellow greenish color.
After glutamate treatment, some neurons can degenerate and detach from the plates. The loss of cells was estimated by comparing the number of intact or degenerated neurons in a well defined field, which was photographed before and after 24 hours after application of glutamate. The percent of surviving neurons in 4 representative fields (magnification 40×) of each monolayer was determined by a researcher unaware of the experimental conditions, evaluating the FDA/PI color, and calculating it as follows: [formula]
Data are expressed as % of surviving cells. Significance was calculated using the Dunnett's test.

[6] = Glutamate (1 mM) + ND37 (20 uM), 30 minutes pretreatment, n = 10

## CCCCCCCCCCCCCCCC(=O)NC1C(O)CC(OCC)(C(=O)N(C)C)OC1C(O)C(O)CO (stereo not drawn) [ND37, β-2-O-ethylglycoside of the dimethylamide of N-palmitoylneuraminic acid]
Cerebellar granule cells [1]; Rattus norvegicus, ND37 1 × 10^-5 M, read-out: % survival
  viability at 10 µM: ~63%
Cerebellar granule cells [1]; Rattus norvegicus, ND37 2 × 10^-5 M, read-out: % survival
  viability at 20 µM: ~83%
Cerebellar granule cells [1]; Rattus norvegicus, ND37 5 × 10^-6 M, read-out: % survival
  viability at 5 µM: 37 ± 5%
Cerebellar granule cells [1]; ND37 1 × 10^-5 M
  MTT values: 0.123 ± 0.006
Cerebellar granule cells [1]; ND37 2 × 10^-5 M
  MTT values: 0.326 ± 0.016
Cerebellar granule cells [1]; ND37 5 × 10^-6 M
  MTT values: 0.110 ± 0.015
[2]; 1 × 10^-4 M
  Cells with neurities (%): 48 ± 9%
[2]; 1 × 10^-5 M
  Cells with neurities (%): 5 ± 3%
[2]; 1×10^-5 to 1×10^-4 M
  neuritogenesis in vitro: induce neuritogenesis
[2]; 2.5 × 10^-5 M
  Cells with neurities (%): 8 ± 4%
[2]; 5 × 10^-5 M
  Cells with neurities (%): 27 ± 5%
[3]
  inside currents activated by glutamate (whole cell response): does not influence the control response; also recorded: not different
[4]; [6]
  Channel conductivity: 50 ps
  Opening frequence: 4.1 ± 2.1 opening/sec
[4]; pretreatment 30 minutes with 20 μM ND37
  effect on channel conductivity and frequency of opening: does not influence
Cerebellar granule cells [5]; ND37 1 × 10^-5 M
  viability at 10 µM: 34 ± 2%
Cerebellar granule cells [5]; ND37 2 × 10^-5 M
  viability at 20 µM: 70 ± 6%
Cerebellar granule cells [5]; ND37 4 × 10^-5 M
  viability at 40 µM: 88 ± 4.5%
